Test results taken from patent EP0791603A2, “Pure somatostatin antagonist and methods of use thereof” (American Cyanamid Company, priority 1996, dated 1997).
Positions of bridges follow the written chain, without caps; N, C: chain ends. Non-standard residues stand in square brackets, D forms with d. Residues, ends and D or L forms follow the SMILES beside them. NMePhe(4-NO2) = CN[C@@H](Cc1ccc([N+](=O)[O-])cc1)C(=O)O; Phe(4-NO2) = N[C@@H](Cc1ccc([N+](=O)[O-])cc1)C(=O)O; 2Nal = N[C@@H](Cc1ccc2ccccc2c1)C(=O)O; d2Nal = N[C@H](Cc1ccc2ccccc2c1)C(=O)O; Abu = CC[C@H](N)C(=O)O

Assays:
[1] = biological target: T1, rat somatostatin receptor subtype 2 (SSTR2) (Rattus norvegicus, UniProt P30680); assay: Yeast assay, somatostatin antagonist activity (zone of no growth in presence of S-14); type: cell-based; design: key: 1 is minimum antagonist activity; 5 is maximum antagonist activity; -: When no activity is observed, the result is indicated by a dash; settings: rating on a scale of 1-5 from zone of no growth; 5µL of 1 mg/mL S-14 added to each plate; S. Cerevisiae LY364
T1 construct: expressed in transfected cells; host or cells: Saccharomyces cerevisiae LY364
T1 sequence (P30680 whole entry): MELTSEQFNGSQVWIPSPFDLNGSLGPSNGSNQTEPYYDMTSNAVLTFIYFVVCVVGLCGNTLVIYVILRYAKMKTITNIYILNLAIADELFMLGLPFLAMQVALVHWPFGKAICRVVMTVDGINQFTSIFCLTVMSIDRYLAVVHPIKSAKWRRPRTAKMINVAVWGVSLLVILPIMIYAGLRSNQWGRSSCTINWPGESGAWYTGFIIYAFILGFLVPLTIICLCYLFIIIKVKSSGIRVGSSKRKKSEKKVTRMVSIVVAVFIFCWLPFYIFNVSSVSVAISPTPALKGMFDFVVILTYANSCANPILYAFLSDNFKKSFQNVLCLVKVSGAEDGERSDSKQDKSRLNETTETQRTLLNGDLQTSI
Description: To evaluate the somatostatin antagonist activity of a test compound, the above procedure is followed except on day 3, 5µL of 1 mg/mL of somatostatin, S-14, is added to each plate, before applying the test compound. If the test compound is an antagonist of somatostatin, then a zone of no growth will appear within the cell growth zone. This zone of no growth is measured and the test compound is given an antagonist rating on a scale of 1-5 wherein 1 is minimum antagonist activity and 5 is maximum antagonist activity.
The results are shown in Table I. When no activity is observed, the result is indicated by a dash.
• 1) Inoculate 2 mL SCD-ura-trp liquid medium in Falcon 2051 tube with a single colony taken from a plate containing LY364 (MATa ura3-52 leu2 his3 trp1 lys2 ade2 far1:: LYS2 fus1:: FUS1-HIS3 gpal::hisG sst2::ADE2 bearing the SSTR2 expression plasmid, pJH2, and the G protein expression plasmid, pLP82)cells. • 2) Incubate overnight in a roller drum at 30°C.
Day 2. • 1) Harvest the cells by centrifugation (3 krpm, 5 min, room temp). • 2) Re-suspend with 5 mL of sterile water. • 3) Harvest again by centrifugation. • 4) Re-suspend in 5 mL SCL-ura-trp liquid medium. • 5) Incubate for 6 hours in a roller drum at 30°C. • 6) Harvest the cells again by centrifugation. • 7) Re-suspend in 5 mL SCG-ura-trp liquid medium. • 8) Incubate overnight in a roller drum at 30°C.
Day 3. • 1) Autoclave SCG-ura-trp-his pH 6.8 agar medium. • 2) Cool to 55°C in water bath. • 3) Add 1 mL of LY364 culture to 1 liter of agar medium. • 4) Stir vigorously for 1 min. • 5) Pour 150 mL each into five 500 cm^2 plates. • 6) Allow to cool on level surface. • 7) Apply test compound.
On day 3, add 5µL 1 mg/mL S-14 to each plate. Day 5. Begin checking plates for growth around applied compounds. Day 7. Growth in response to somatostatin should be readily observable. Rate extent of growth or inhibition of growth according to rating scale described hereinabove.

[2] = biological target: SSTR2 (Rattus norvegicus, UniProt P30680); assay: Cyclic AMP accumulation in intact cells (adrenal binding protein method); type: cell-based; settings: forskalin stimulated c-AMP levels in intact cells, 15 minutes at 37°C; read-out: % IA (% intrinsic activity)
Chain of SSTR2 (P30680 whole entry): as above
Excerpt: Cyclic AMP accumulation assays are used to determine the functional coupling of somatostatin receptors to effectors. All five cloned somatostatin receptors inhibit cyclic AMP accumulation and adenylyl cyclone activity ^1 ^,2,3,4,5. This evaluation measures cyclic AMP accumulation from intact cells using the adrenal binding protein method. Signal transduction by somatostatin is mediated by lowering intracellular c-AMP levels. This functional assay measures the ability of the test compound to inhibit the effect of somatostatin on forskalin stimulated c-AMP levels. ^1 K. Yasuda, S. Rens-Damiano, C. D. Breder, S. F. Law, C. B. Saper, T. Reisine and G. I. Bell, J. Biol. Chem. 267,20422-20428 (1992). ^2 J. F. Bruno, Y. Xu, J. Song and M. Berelowitz, Proc. Natl. Acad. Sci. USA 89, 11151-11155 (1992). ^3 A. M. O'Carrol, S. J. Lolait, M. König and L. Mahan, Mol. Pharmacol. 42, 939-946 (1992). ^4 J. R. Hadcock, J. Strnad and C. M. Eppler, Mol. Pharmacol. 45, 410-416 (1994). ^5 J. Strnad, C. M. Eppler, M. Corbett and J. R. Hadcock, Biochem. Biophys. Res. Commun.191, 968-976 (1993).
Bovine adrenal gland extracts are prepared according to the method of Brown et al^6 with minor modifications. […] Two-four adrenals are thawed and the cortices are separated on ice: chopped into small pieces; resuspended in 1.5 volumes of buffer containing 0.25 M sucrose, 50 mM Tris-HCl pH 7.4, 25 mM KCl, 5 mM MgCl2 and protease inhibitors (5 µg/ml leupeptin, 5µg/ml aprotinin, 100 µg/ml bacitracin, and 100 µg/ml benzamidine; homogenized with a Polytron and centrifuged for 5 minutes. The resultant supernatant is saved and centrifuged for 15 minutes. This resultant supernatant is saved and stored as 1 mL aliquots at -80°C. Four adrenals glands are usually sufficient to prepare 30-50 one mL aliquots. Each preparation is tested with standards at different dilutions before use in the following experiment. ^6 B. L. Brown, J. D. M. Albano, R. P. Ekins and A. M. Sgherzi, Biochem. J. 121, 561-562 (1971).
Somatostatin-mediated inhibition of cyclic AMP accumulation is measured in intact cells co-incubated with the diterpene forskalin (5 µM) which activates adenylyl cyclase directly and stimulates cyclic AMP accumulation in cells. The medium is aspirated from two 100 mm plates of cells, a 5 mL portion of phosphate-buffered saline containing 2 mM EDTA is added to each plate. The cells are washed off the plate, without scraping. The cells are then pelleted and resuspended in Kreb's Ringers Phosphate (KRP) containing 2 mM CaCl2 (added fresh), washed once and resuspended in 2 ml of KRP with a CaCl2 containing 100 µM IBMX. The cells are counted and the concentration of cells is adjusted to 50,000/70 µl and incubated 15 minutes at room temperature before starting the assay.
Polypropylene tubes (12 x 75) are labelled (test samples are done in triplicate including controls). Test samples are prepared containing the following: no added peptide sample (basal), forskalin alone (10 µM final), and forskalin plus various amounts of S-14 (1 X 10^-10M to 1 X 10^-6M, final). The first two steps are done on the bench top. Volumes are adjusted with KRP and 10 µl 1 mM IBMX is added to each tube. The tubes are placed in a shaking 37°C water bath and 70 µl cells is added at 15 second intervals until final volume/tube is 100 µL (concentration of cells is 25-100,000/tube). The tubes are incubated for 15 minutes at 37°C, treated with 10 µl of 1.0 N HCl at 10 second intervals and transfered to an ice bath for 3 minutes (tubes may be stored overnight). The samples are neutralized with […] 1.0 N NaOH containing 250 mM Tris, pH 7.4.
The test tube racks are placed half way down in a large chest of ice. A 50µl portion of cyclic AMP standard (Sigma) is aliquoted to each tube in triplicate (e.g. 0, 0.5, 1.0, 2.0, 4.0, 8.0, 16.0 pmoles/tube), then 70µl KRP is added to each tube of standard. One set of tubes containing 220 µl KRP is set up for the background. […]

In the case of `CC(C)[C@@H]1NC(=O)[C@H](CCCCN)NC(=O)[C@@H](Cc2c[nH]c3ccccc23)NC(=O)[C@H](Cc2ccc(O)cc2)NC(=O)[C@H](NC(=O)[C@@H](N)Cc2ccc([N+](=O)[O-])cc2)CSSC[C@@H](C(=O)N[C@@H](Cc2ccc3ccccc3c2)C(N)=O)NC1=O` (H-[Phe(4-NO2)][dC]Y[dW]KVC[2Nal]-NH2; disulfide 2-7 (inferred)), the “Yeast Assay Antagonist” value [1] is reported as 2 and the Emax [2] is reported as 8%.

With `CC[C@@H]1NC(=O)[C@H](CCCCN)NC(=O)[C@@H](Cc2c[nH]c3ccccc23)NC(=O)[C@H](Cc2ccc(O)cc2)NC(=O)[C@H](NC(=O)[C@@H](N)Cc2ccc([N+](=O)[O-])cc2)CSSC[C@@H](C(=O)N[C@@H](Cc2ccc(O)cc2)C(N)=O)NC1=O` (H-[Phe(4-NO2)][dC]Y[dW]K[Abu]CY-NH2; disulfide 2-7 (inferred)) the “Yeast Assay Antagonist” value [1] was 3 and the Emax [2] was 21%.

In the case of `CC(C)[C@@H]1NC(=O)[C@H](CCCCN)NC(=O)[C@@H](Cc2c[nH]c3ccccc23)NC(=O)[C@H](Cc2ccc(O)cc2)NC(=O)[C@H](NC(=O)[C@H](N)Cc2ccc3ccccc3c2)CSSC[C@@H](C(=O)N[C@@H](Cc2ccc(O)cc2)C(N)=O)NC1=O` (H-[d2Nal][dC]Y[dW]KVCY-NH2; disulfide 2-7), the “Yeast Assay Antagonist” value [1] is reported as 2 and the Emax [2] is reported as 8%.

For `C[C@@H](O)[C@@H]1NC(=O)[C@H](CCCCN)NC(=O)[C@@H](Cc2c[nH]c3ccccc23)NC(=O)[C@H](Cc2ccc(O)cc2)NC(=O)[C@H](NC(=O)[C@@H](N)Cc2ccc([N+](=O)[O-])cc2)CSSC[C@@H](C(=O)N[C@@H](Cc2ccc(O)cc2)C(N)=O)NC1=O`, the “Yeast Assay Antagonist” value [1] was 5 and the Emax [2] was 5%.

In the case of `C[C@@H](O)[C@@H]1NC(=O)[C@H](CCCCN)NC(=O)[C@@H](Cc2c[nH]c3ccccc23)NC(=O)[C@H](Cc2ccc(O)cc2)NC(=O)[C@H](NC(=O)[C@@H](N)Cc2ccc([N+](=O)[O-])cc2)CSSC[C@@H](C(=O)N[C@H](Cc2ccc(O)cc2)C(N)=O)NC1=O`, the “Yeast Assay Antagonist” value [1] is reported as 4 and the Emax [2] is reported as 12%.

`CN[C@@H](Cc1ccc([N+](=O)[O-])cc1)C(=O)N[C@@H]1CSSC[C@@H](C(=O)N[C@@H](Cc2ccc(O)cc2)C(N)=O)NC(=O)[C@H](C(C)C)NC(=O)[C@H](CCCCN)NC(=O)[C@@H](Cc2c[nH]c3ccccc23)NC(=O)[C@H](Cc2ccc(O)cc2)NC1=O` (H-[NMePhe(4-NO2)][dC]Y[dW]KVCY-NH2; disulfide 2-7 (inferred)) was tested, and the “Yeast Assay Antagonist” value [1] was 5 and the Emax [2] was 9%.

With `CC(=O)N[C@@H](Cc1ccc2ccccc2c1)C(=O)N[C@@H]1CSSC[C@@H](C(=O)N[C@@H](Cc2ccc(O)cc2)C(N)=O)NC(=O)[C@H]([C@@H](C)O)NC(=O)[C@H](CCCCN)NC(=O)[C@@H](Cc2c[nH]c3ccccc23)NC(=O)[C@H](Cc2ccc(O)cc2)NC1=O` (Ac-[2Nal][dC]Y[dW]KTCY-NH2; disulfide 2-7 (inferred)) the “Yeast Assay Antagonist” value [1] was 1 and the Emax [2] was -26%.

For `CC(=O)N[C@@H](Cc1ccc([N+](=O)[O-])cc1)C(=O)N[C@@H]1CSSC[C@@H](C(=O)N[C@H](Cc2ccc(O)cc2)C(N)=O)NC(=O)[C@H]([C@@H](C)O)NC(=O)[C@H](CCCCN)NC(=O)[C@@H](Cc2c[nH]c3ccccc23)NC(=O)[C@H](Cc2ccc(O)cc2)NC1=O`, the “Yeast Assay Antagonist” value [1] was 4 and the Emax [2] was -3%.

With `CC(C)[C@@H]1NC(=O)[C@H](CCCCN)NC(=O)[C@@H](Cc2c[nH]c3ccccc23)NC(=O)[C@H](Cc2ccc(O)cc2)NC(=O)[C@H](NC(=O)[C@@H](N)Cc2ccc3ccccc3c2)CSSC[C@@H](C(=O)N[C@@H](Cc2ccc(O)cc2)C(N)=O)NC1=O` (H-[2Nal][dC]Y[dW]KVCY-NH2; disulfide 2-7; N-terminus assumed) the “Yeast Assay Antagonist” value [1] was 3 and the Emax [2] was 13%.

With `CC(C)[C@@H]1NC(=O)[C@H](CCCCN)NC(=O)[C@@H](Cc2c[nH]c3ccccc23)NC(=O)[C@H](Cc2ccc(O)cc2)NC(=O)[C@H](NC(=O)[C@@H](N)Cc2ccc([N+](=O)[O-])cc2)CSSC[C@@H](C(=O)N[C@@H](Cc2ccc(O)cc2)C(N)=O)NC1=O` (H-[Phe(4-NO2)][dC]Y[dW]KVCY-NH2; disulfide 2-7 (inferred)) the “Yeast Assay Antagonist” value [1] was 5 and the Emax [2] was 11%.
